From patent US20140005163A1 (NOVARTIS AG, priority 2010, published 2014)
≈ marks a conversion by molar mass, not a printed value.

What was measured:
[1] = tested on: PKB Ser473 phosphorylation in Rat1-myr-HA-p110 alpha cells; test: Reverse protein array assay, PKB Ser473 phosphorylation in Rat1-myr-p110 alpha cells; assay type: cell-based; details: 0.5 h, pAkt Ser473, 30 minutes compound incubation, read-out: p-PKB IC50
Outline: (§1)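 Cells: Rat1-myr-HA-p110 alpha/beta/delta, seeded ≥20 h. Lysis on ice 10 min; reverse-phase protein array, 4 lysate dilutions; fluorescence read, relative intensity.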

[2] = tested on: PKB Ser473 phosphorylation in Rat1-myr-HA-p110 beta cells; test: Reverse protein array assay, PKB Ser473 phosphorylation in Rat1-myr-p110 beta cells; assay type: cell-based; details: 0.5 h, pAkt Ser473, 30 minutes incubation, read-out: p-PKB IC50
Outline: as §1

[3] = tested on: S6 Ribosomal Protein phosphorylation Ser235/236 in TSC1 null mouse embryo fibroblast (MEF) cells; test: Reverse protein array assay, S6 Ribosomal Protein phosphorylation Ser235/236 in TSC1 null MEF cells; assay type: cell-based; details: 1 h, pS6 ribosomal protein Ser235/236, 60 minutes incubation, read-out: p-S6 IC50
Outline: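 TSC1−/− MEFs, seeded and held ≥20 h at 37 °C/5% CO2, were exposed to 8-step serial compound dilutions (0.02% DMSO final; DMSO vehicle control) for 60 min at 37 °C. Cells were then lysed on ice for 10 min and lysates spotted onto reverse protein array chips.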

[4] = Solubility at pH 6.8; assay type: physicochemical; details: pH 6.8, aqueous buffer, thermodynamic from solid; read-out: solubility
Outline: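 Solubility was measured at pH 6.8 following the cited Zhou et al. (2007) procedure.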

[5] = tested on: PKB Ser473 phosphorylation in Rat1-myr-HA-p110 delta cells; test: Reverse protein array assay, PKB Ser473 phosphorylation in Rat1-myr-p110 delta cells; assay type: cell-based; details: read-out: p-PKB IC50
Outline: as §1

Row | Structure (SMILES) | IC50 [1] | IC50 [2] | solubility [4] | IC50 [5] | IC50 [3]
1 | CNc1cc(-c2ccc3ncc4c(c3c2)n(-c2cn(C)nc2C)c(=O)n4C)cnc1CO [Example 158.1, 1-(1,3-Dimethyl-1H-pyrazol-4-yl)-8-(6-hydroxymethyl-5-methylamino-pyridin-3-yl)-3-methyl-1,3-dihydro-imidazo[4,5-c]quinolin-2-one] | 6 nM | 17 nM | > 429 µg/mL | 45 nM | 8 nM
2 | Cc1nn(C)cc1-n1c(=O)n(C)c2cnc3ccc(-c4cncnc4)cc3c21 [Example 26, 1-(1,3-Dimethyl-1H-pyrazol-4-yl)-3-methyl-8-pyrimidin-5-yl-1,3-dihydro-imidazo[4,5-c]quinolin-2-one] | 159 nM | 226 nM | 242 µg/mL (≈ 652 µM) | 450 nM | 5 nM
3 | CCn1cc(-n2c(=O)n(C)c3cnc4ccc(-c5ccc(COC)nc5)cc4c32)c(C)n1 [Example 104, 1-(1-Ethyl-3-methyl-1H-pyrazol-4-yl)-8-(6-methoxymethyl-pyridin-3-yl)-3-methyl-1,3-dihydro-imidazo[4,5-c]quinolin-2-one] | 71 nM | 37 nM | 4 µg/mL (≈ 9.33 µM) | 110 nM | 39 nM
4 | Cc1nn(C)cc1-n1c(=O)n(C)c2cnc3ccc(-c4cncc(NC(C)C)c4)cc3c21 [Example 177.1, 1-(1,3-Dimethyl-1H-pyrazol-4-yl)-8-(5-isopropylamino-pyridin-3-yl)-3-methyl-1,3-dihydro-imidazo[4,5-c]quinolin-2-one] | 9 nM | 16 nM | 169 µg/mL (≈ 395 µM) | 39 nM | 2 nM
5 | Cc1nn(C)cc1-n1c(=O)n(C)c2cnc3ccc(-c4ccc(N5CCN(C)CC5)nc4)cc3c21 [Example 96, 1-(1,3-Dimethyl-1H-pyrazol-4-yl)-3-methyl-8-[6-(4-methyl-piperazin-1-yl)-pyridin-3-yl]-1,3-dihydro-imidazo[4,5-c]quinolin-2-one] | 12 nM | 37 nM | > 469 µg/mL | 60 nM | 7 nM

Now from value to compound, other results behind:

Row | IC50 [1] | IC50 [2] | solubility [4] | IC50 [5] | Structure (SMILES) | IC50 [3]
6 | < 5 nM | 10 nM | 4 µg/mL (≈ 9.53 µM) | 33 nM | Cc1nn(C)cc1-n1c(=O)n(C)c2cnc3ccc(-c4cnc(Cl)c(N)c4)cc3c21 [Example 152.2, 8-(5-Amino-6-chloro-pyridin-3-yl)-1-(1,3-dimethyl-1H-pyrazol-4-yl)-3-methyl-1,3-dihydro-imidazo[4,5-c]quinolin-2-one] | 1 nM
7 | < 5 nM | < 5 nM | 32 µg/mL (≈ 69 µM) | 10 nM | CNc1cc(-c2ccc3ncc4c(c3c2)n(-c2cn(C)nc2Cl)c(=O)n4C)cnc1COC [Example 160.1, 1-(3-Chloro-1-methyl-1H-pyrazol-4-yl)-8-(6-methoxymethyl-5-methylamino-pyridin-3-yl)-3-methyl-1,3-dihydro-imidazo[4,5-c]quinolin-2-one] | < 0.5 nM
8 | 32 nM | 116 nM | 8 µg/mL (≈ 18.4 µM) | 327 nM | Cc1nn(C)cc1-n1c(=O)n(C)c2cnc3ccc(-c4cnc(CO)c(Cl)c4)cc3c21 [Example 238, 8-(5-Chloro-6-hydroxymethyl-pyridin-3-yl)-1-(1,3-dimethyl-1H-pyrazol-4-yl)-3-methyl-1,3-dihydro-imidazo[4,5-c]quinolin-2-one] | 6 nM
9 | 45 nM | 103 nM | 44 µg/mL (≈ 91.9 µM) | 58 nM | CCOCc1ncc(-c2ccc3ncc4c(c3c2)n(-c2cn(C)nc2Cl)c(=O)n4C)cc1OC [Example 196.1, 1-(3-Chloro-1-methyl-1H-pyrazol-4-yl)-8-(6-ethoxymethyl-5-methoxy-pyridin-3-yl)-3-methyl-1,3-dihydro-imidazo[4,5-c]quinolin-2-one] | 10 nM
